Bounds are passed on as bounds.

Glycogen synthase kinase-3 beta, sequence (P49841 whole entry): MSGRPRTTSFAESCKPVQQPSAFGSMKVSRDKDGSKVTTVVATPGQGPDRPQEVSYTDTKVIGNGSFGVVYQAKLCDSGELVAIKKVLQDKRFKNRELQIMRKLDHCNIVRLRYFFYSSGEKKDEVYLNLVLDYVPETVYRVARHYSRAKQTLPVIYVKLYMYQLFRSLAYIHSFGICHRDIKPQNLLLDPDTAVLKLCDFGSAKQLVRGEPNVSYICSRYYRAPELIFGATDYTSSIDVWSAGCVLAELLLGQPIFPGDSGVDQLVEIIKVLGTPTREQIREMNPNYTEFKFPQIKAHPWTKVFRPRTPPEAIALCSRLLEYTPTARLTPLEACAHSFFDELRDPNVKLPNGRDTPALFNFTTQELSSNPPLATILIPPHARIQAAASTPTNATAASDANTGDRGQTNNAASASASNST

This experiment addresses Glycogen synthase kinase-3 beta (Homo sapiens, UniProt P49841). The experiment can be described thus: GSK3beta kinase inhibitor potency, dose response, biochemical, luminescence, cell-free homogeneous, retest (AID 434954).
One may read the EC50 as the concentration that produces a half-maximal response. Low readings indicate an effect from little substance, high ones a need for much substance. With `CC1=Nc2ncnn2C(c2ccco2)C1C(=O)OCc1ccccc1` (stereo not given) [benzyl 7-(furan-2-yl)-5-methyl-1,7-dihydro-[1,2,4]triazolo[1,5-a]pyrimidine-6-carboxylate], the EC50 was 40.7 µM. Take `COc1cccc(-n2c(Cn3nc(C(F)F)cc3C(F)F)n[nH]c2=S)c1` [3-[[3,5-bis(difluoromethyl)-1-pyrazolyl]methyl]-4-(3-methoxyphenyl)-1H-1,2,4-triazole-5-thione]: the EC50 is > 300 µM. To `Cc1ccc(S(=O)(=O)NCC(=O)N(CCc2ccccc2)CC(=O)NCc2ccco2)cc1` [N-[2-(furan-2-ylmethylamino)-2-oxoethyl]-2-[(4-methylphenyl)sulfonylamino]-N-(2-phenylethyl)acetamide] belongs > 300 µM; to `COc1cccc2c1cc1c(=O)n(CC(=O)NCCCN3CCN(C)CC3)nc(C)n12`, > 300 µM; to `Nc1nonc1-n1nnc(C(=O)NN=Cc2ccccc2Cl)c1CN1CCOCC1`, 60.5 µM. Under `CC1CCc2c(sc3nn[nH]c(=O)c23)C1` (stereo not given) [SMR000124179] stands 39 µM. Under `Cc1ccc(SCC(=O)Nc2ccc3c(c2)C(=O)NC3=O)cc1` [N-[1,3-bis(oxidanylidene)isoindol-5-yl]-2-(4-methylphenyl)sulfanyl-ethanamide] stands > 300 µM; under `COc1cccc(CNS(=O)(=O)c2cc(CN3C(=O)c4cccnc4C3=O)ccc2OC)c1` [SMR000630004], > 300 µM; under `O=C(Cc1sc(N2CCCCC2)nc1O)Nc1cccc(C(F)(F)F)c1` [MLS000570409], > 300 µM. `Nc1nc(NCCN2CCOCC2)nc(NCc2ccccc2)c1[N+](=O)[O-]` [SMR000434816] registered an EC50 of 26.3 µM. To `CC(C)=CCc1c(O)ccc(C2COc3c(CC=C(C)C)c(O)cc(O)c3C2=O)c1O` (stereo not given) [3',8-diprenyldalbergioidin] belongs > 300 µM; to `CCN(CC)Cc1c(C(=O)NN=Cc2ccc(C)o2)nnn1-c1nonc1N` [1-(4-amino-1,2,5-oxadiazol-3-yl)-5-(diethylaminomethyl)-N-[(5-methylfuran-2-yl)methylideneamino]triazole-4-carboxamide], 23 µM. As for `O=C1CN(c2nc(-c3cccnc3)nc3sc4c(c23)CCCC4)CCN1` [MLS000772211], a half-maximal effect (EC50) was put at 24.8 µM.

Consider `NC(=O)c1c(NC(=O)CCCn2cnc([N+](=O)[O-])n2)sc2c1CCCC2` [2-{[4-(3-nitro-1H-1,2,4-triazol-1-yl)butanoyl]amino}-4,5,6,7-tetrahydro-1-benzothiophene-3-carboxamide], for which a half-maximal response (EC50) required 105 µM. Compared with the last molecule, the EC50 is about 4.2-fold higher. Under `Clc1ccccc1CN1CCN(c2cccc3[nH]ccc23)CC1` [4-[4-[(2-chlorophenyl)methyl]piperazin-1-yl]-1H-indole] stands > 300 µM; under `c1cc(CSc2nnc(-c3ccc4c(c3)OCO4)o2)ccn1` [SMR000006350], 1.71 µM. Under `COc1ccc(CN(CC(=O)NCc2ccc(F)cc2)C(=O)CCC(=O)Nc2ccccn2)cc1` [N-[(4-Fluoro-benzylcarbamoyl)-methyl]-N-(4-methoxy-benzyl)-N'-pyridin-2-yl-succinamide] stands > 300 µM; under `CCc1nn(CC(=O)NCCCc2ccccc2)c(=O)c2cc3c(OC)cccc3n12` [SMR000624506], > 300 µM. Under `CC(C)N1C(=O)N(c2ccc(Cl)cc2)C(C)(O)CC1(C)C` (stereo not given) [SMR000539554] stands > 300 µM. As for `N#Cc1c(-c2ccccc2)nc(-c2ccccc2)[nH]c1=O` [SMR000168447], the EC50 is > 300 µM.

`Nc1nonc1-n1nnc(C(=O)NN=Cc2ccccn2)c1-c1ccccc1` [1-(4-azanyl-1,2,5-oxadiazol-3-yl)-5-phenyl-N-(pyridin-2-ylmethylideneamino)-1,2,3-triazole-4-carboxamide] showed an EC50 of 65.6 µM. To `C=CCC1(CC=C)CCCN1C(=O)C1CCC(=O)N(CCc2ccc(OC)cc2)C1` (stereo not given) [MLS001072450] belongs > 300 µM; to `CCCCn1nc(NC(=O)c2cccs2)c2cc3ccccc3nc21` [MLS000081455], > 300 µM; to `COc1cc([CH+][N-]NC(=O)c2ccc(O)cc2)ccc1Oc1ccc([N+](=O)[O-])cn1` [4-hydroxy-N-[[3-methoxy-4-(5-nitropyridin-2-yl)oxyphenyl]methylideneamino]benzamide;propan-2-ol], > 300 µM. Under `Cc1ccnc(NC(=O)c2ccc([N+](=O)[O-])o2)c1` [5-nitro-N-(4-methyl-2-pyridinyl)-2-furamide] stands > 300 µM; under `Cc1cc2nc(-c3cccnc3O)[nH]c2cc1C`, 8.16 µM. To `N#Cc1c(O)nc(-c2ccncc2)nc1-c1ccccc1` [4-oxidanylidene-6-phenyl-2-pyridin-4-yl-1H-pyrimidine-5-carbonitrile] belongs > 300 µM; to `CCOC(=O)/C(C#N)=C/c1cn(CCC(=O)O)nc1-c1ccccc1` [3-[4-[(E)-2-cyano-3-ethoxy-3-oxoprop-1-enyl]-3-phenyl-1-pyrazolyl]propanoic acid], > 300 µM; to `O=C(COc1ccccc1)Nc1ccc2c(c1)C(=O)N(CC1CCCO1)C2=O` (stereo not given) [SMR000291909], > 300 µM. Consider `c1ccc(-n2cnnc2SCc2cn3cccnc3n2)cc1` [2-(4-Phenyl-4H-[1,2,4]triazol-3-ylsulfanylmethyl)-imidazo[1,2-a]pyrimidine], for which the EC50 is > 300 µM.

`COc1ccc(-c2nn(-c3ccccc3)cc2C#N)cc1` [3-(4-methoxyphenyl)-1-phenyl-4-pyrazolecarbonitrile]: the EC50 was > 300 µM. `CCc1ccc(CN=Nc2ncnc3nc[nH]c23)cc1` [MLS000419199] returned an EC50 of 26.6 µM. To `CCC(=NNC(=O)CSCc1ccccc1Cl)c1ccc2c(c1)OCCO2` belongs > 300 µM; to `COc1ccc(OC)c(Nc2nc(NCCCN(C)C)nc(N)c2[N+](=O)[O-])c1` [3-[[4-amino-6-(2,5-dimethoxyanilino)-5-nitro-pyrimidin-2-yl]amino]propyl-dimethyl-amine], 2.74 µM; to `Cc1ccc(-n2c(C)c([N+](=O)[O-])c3ccc(O)cc32)cc1` [2-methyl-1-(4-methylphenyl)-3-nitro-indol-6-ol], > 300 µM. In the case of `COc1ccc(Cl)cc1-n1c(C)ccc1C` [MLS000680869], the EC50 was > 300 µM. To `Cc1ccc(-c2nn(-c3ccccc3)cc2C=C2C(=O)CC(C)(C)CC2=O)cc1` [5,5-dimethyl-2-[[3-(4-methylphenyl)-1-phenylpyrazol-4-yl]methylidene]cyclohexane-1,3-dione] belongs > 300 µM; to `N#Cc1c(N)nc(C(C#N)C#N)c(C#N)c1-c1ccccc1`, 19.2 µM. To `CCOc1ccc2nc(NC(=O)CSc3nc(O)c(C#N)c(-c4ccccc4)n3)sc2c1` belongs 34.2 µM. For the molecule `O=C1C[C@@H](c2ccc(O)cc2)Oc2cc(O)ccc21` [7-Hydroxy-2-(4'-hydroxyphenyl)chroman-4-one], the EC50 was > 300 µM. To `CC(=O)Nc1ccc(C(=O)OCCCOC(=O)c2ccc(NC(C)=O)cc2)cc1` belongs > 300 µM; to `COCCOC(=O)c1c(C)oc2ccc(OC(=O)c3cccs3)cc12` [MLS000111716], > 300 µM; to `Cc1ccc(-c2oc3ccccc3c(=O)c2O)cc1` [MLS000114653], > 300 µM. `Cc1cc(C)c(C)c(S(=O)(=O)Nc2ccccc2C(=O)NCCCn2ccnc2)c1C` [MLS000055504]: the EC50 was > 300 µM. To `CC(C)N(C(=O)Cc1ccccc1[N+](=O)[O-])C(C)C` [SMR000291889] belongs > 300 µM.

These data come from BindingDB's records for doi:10.7270/Q2TX3CTT (Broad Institute, 2010).
